Test results as given in patent publication US20030208035A1, “Antifungal and/or antibacterial peptides, preparation methods, compositions containing same and methods of treating mammals and/or plants” (priority 2000, published 2003).
Bridges are numbered along the chain shown (N, C = ends). Where no end group is shown, it is not given here.

Key:
[1] = system: Candida albicans (IHEM 8060 strain); test: Candida albicans infected model, lethal in mice (disseminated candidiasis); type: in vivo; settings: for mice alive on day 7 (out of 10): placebo 5 alive; for time of onset of the 1st death: placebo day 2.5; for effect on mouse survival relative to placebo treatment: 3.10^6 CFU, three i.v. injections, 10 mice of 15 g; for effect on mouse survival relative to placebo treatment / morbidity score up to post-infection day 5 / median mortality, post-infection day / delay of onset of the 1st death: 5 mg/kg; for morbidity score up to post-infection day 5: placebo 1/50; for median mortality, post-infection day: placebo day 4; for delay of onset of the 1st death: placebo first deaths 2.5 days
Procedure: Heliomycin and its analogues were tested for in vivo antifungal activity in a model infected with Candida albicans, lethal in mice. The pathogenic agent Candida albicans (IHEM 8060 strain) was inoculated by intravenous route (i.v.) at a dose of 2.5×10^6 CFU/mouse. the peptides were administered by i.v. route in 4 injections 6 h, 24 h, 48 h and 72 h after infection. Assessment criteria for activity were evaluation of survival and morbidity at 7 days. The morbidity scores, which take into account general state of health (condition of fur, mobility, hydration) were determined for each mouse with values ranging from 0 to 5 and defined below: 0=dead, 1=moribund, 2=very ill, 3=ill, 4=slightly ill, 5=healthy. The sum of the individual scores was calculated for each group, a score of 50 for a group of 10 mice meaning that all the mice were healthy.
Following a standard protocol, groups of 10 Swiss OF1 male mice weighing 12 g were infected via i.v. route with a dose of 2.5×10^6 CFU/mouse. Heliomycin and Ard1 were administered by i.v. route in 4 injections, 6 h, 24 h, 48 h and 72 h after infection. For each peptide, 2 doses were tested: 10 mg/kg and 30 mg/kg. A placebo group was injected with peptide solvent, 0.9% sodium chloride.
In this experiment, inoculation of the mice with 2.5.10^6 CFU/mouse was 50% lethal at day 5 in the group which received placebo treatment. The first deaths occurred on post-infection day 2.5 and median mortality occurred on post-infection day 5. On day 7, 5 mice were alive and the morbidity score 15/50.
In this experiment, inoculation of Swiss OF1 mice weighing 15 g with 3.10^6 CFU of Candida albicans induces 50% mortality on day 4 after infection in the group treated with the placebo. The first deaths occur 2.5 days after infection, and 100% of the mice were dead on day 5.5.
In this experiment, inoculation of the mice with 2.5.10^6 CFU/mouse was 50% lethal at day 5 and 100% at day 8 for mice in the placebo group. The first death occurred 3 days after infection. The morbidity score fell rapidly below 30/50 (25/50 at day 2.5).
The pEM35 peptide was administered at doses of 10 and 30 mg/kg/injection with 3 daily doses for 4 days (1 h, 5 h and 10 h post-infection on day 0; at 8 h, 14 h and 20 h on days 1, 2 and 3), i.e., daily doses totalling 30 and 90 mg/kg.

C. parapsilosis = type: cell-based
Procedure: (§1) Candida yeasts (C. albicans, C. glabrata, C. dubliensis, C. tropicalis, C. kefyr, C. krusei and C. parapsilosis—donated by Dr. H. Koenig, Hôpital Civil, Strasbourg), fluconazole-resistant C. albicans (n^o245962, n^o2332, n^o246335 and n^o3552, donated by Drs. J.Meis and J. Mouton, University Hospital, Microbiology Department, Nijmegen, Netherlands), and Cryptoccocus neoformans (donated by Dr. H. Koenig, Hôpital Civil, Strasbourg) were seeded on Sabouraud-Cloramphenicol Agar slant gelose (Biomerieux) and left to incubate for 24 h at 30° C. (Candida sp.) and for 72 h at 37° C. (Cryptoccocus neoformans).
(§2) Some yeast colonies were placed in suspension in liquid Sabouraud medium (Biomerieux) to obtain a final concentration of 0.1 OD at 600 nm corresponding to 2.5.10^6 yeasts/ml.
(§3) The yeast suspension was adjusted to 5.10^3 yeast/ml in Sabouraud medium.
(§4) 100 μl of peptide dilutions (concentration of 50 with 0.097 μg/ml peptide) were deposited in microtitration plates. After adding […] of yeast suspension with 5.10^3 yeast/ml i.e. 500 yeasts, the test plates were incubated 24 h at 30° C. (Candida) under slow shaking or 72 h at 37° C. (Cryptoccocus).
(§5) Determination of minimal inhibiting concentrations (MIC) was made by measuring absorbency at 600 nm using a spectrophotometer-microtitration plate reader. The MIC score was set at a growth inhibition rate of 50%.

C. dubliensis = type: cell-based
Procedure: as §1, §2, §3, §4, §5

Candida albicans = test: anti-Candida albicans growth inhibition test in liquid medium (96-well microplates); type: cell-based; settings: fold relative to Ard1
Procedure: The anti-Candida albicans and anti-Aspergillus fumigatus activities of the different analogues were assessed using a growth inhibition test in liquid medium made in 96-well microplates. The activity of the purified peptides was tested for different dilutions of each peptide and was compared with those of heliomycin and Ard1 quantified under the same conditions.
The activity test was made directly on yeasts derived from a stock frozen at −80° C., in Sabouraud medium containing 15% glycerol. The density of the yeasts in the stock was adjusted to an optical density of 0.4 OD at 600 nm. After slow thawing at room temperature, the yeast suspension was reduced by dilution to an optic density of 1 mOD at 600 nm in Sabouraud medium, and 90 μl of this dilution were deposited in the wells of microtitration plates in the presence of 10 μl of sample to be tested. Control samples were systematically made in which 10 μl of sample were replaced by 10 μl of sterile water. Media sterility was controlled by incubating 10 μl sterile water in the presence of 90 μl of medium. The samples were incubated at 30° C. for 40 h under slight stirring and the antifungal activity was quantified by measuring optic density at 600 nm.

[2] = Acute toxicity study in mice; type: in vivo; settings: for acute toxicity: mice, intravenous, in 0.9% NaCl, injections of 30 mg/kg repeated at 30-minute intervals, 3 times daily for 3 days
Procedure: […] The peptides were solubilised in a 0.9% NaCl solution; the injected volume was 150 μl injected in 45 seconds via the lateral tail vein.

A. fumigatus = type: cell-based; settings: 48 h
Procedure: The antifungal activity was detected by a growth inhibition test in a liquid medium.
The filamentous fungi (A. fumigatus, A. flavus and A. terreus, donated by Dr. H. Koenig, Hôpital Civil, Strasbourg; and S. prolificans and F. solani donated by Drs. J. Meis and J. Mouton, University hospital, Microbioolgy Department, Nijmegen, Netherlands) were seeded on Malt-Agar slant gelose (Biomerieux) and incubated 7 days at 37° C.
The spores were then collected with 10 ml YPG medium containing 0.05% Tween 20 and filtered through a gauze. The spores were centrifuged 10 min at 1700 rpm, the residue was collected in YPG (1 g Yeast extract, 1 g Peptone, 3 g Glucose per 1 l).
The suspension was counted with a Coverslide and adjusted to 10^4 spores/ml.
100 μl of peptide dilutions (concentration of 50 with 0.097 μg/ml peptide) were deposited in microtitration plates. 100 μl with 10^4 spores/ml of filamentous fungi, i.e. 1000 spores, were then added.
The test plates were incubated 48 h at 37° C.
Determination of minimum inhibiting concentrations (MIC) was made by observing well cover rate. The MIC score was set at 50% well covering.

## DKLIGSCVWGAVNYTSNCNAECKRRGYKGGHCGSFANVNCWCQT (disulfide 7-32, 18-40, 22-42 (inferred)) [pEM31]
[1]; FIGS. 4-5, 10 mg/kg
  activity compared with Ard1: more active than Ard1
  morbidity score maintained for 5 days: higher than 40/50
  mice alive on day 7 (out of 10): 8 mice
  time of onset of the 1st death: 5.5 days
[1]; FIGS. 6-7
  effect on mouse survival relative to placebo treatment: does not significantly increase mouse survival
[1]; FIGS. 6-7, dose 5 mg/kg
  effectiveness in the candidiasis infected model: not effective
C. parapsilosis
  MIC: 1.56 µg/mL
C. dubliensis
  MIC: 6.25 µg/mL
Candida albicans
  Activity C.a. (relative activity in relation to Ard1): 2

## DKLIGSCVWGAVNYTSNCNAECKRRGYKGGHCGSFLNVNCWCET (disulfide 7-32, 18-40, 22-42 (inferred)) [pEM35]
[1]; FIG. 8, 30 mg/kg/day (10 mg/kg/injection, 3 daily, 4 days), placebo 100% lethal day 8
  survival rate on post-infection day 8: 80%
[1]; FIG. 8, 90 mg/kg/day (30 mg/kg/injection, 3 daily, 4 days)
  survival rate on post-infection day 8: 90%
[1]; FIG. 8, 30 and 90 mg/kg/day
  morbidity score on day 8: 30/50
  morbidity score until day 7: above 40/50
[1]; FIGS. 4-5, 10 mg/kg
  activity compared with Ard1: more active than Ard1
  mice alive on day 7 (out of 10): 9 mice
  time of onset of the 1st death: 7 days
[1]; FIGS. 6-7
  morbidity score up to post-infection day 5: 28/50
  median mortality, post-infection day: 6 days
  delay of onset of the 1st death: 1.5 days
[2]
  acute toxicity: no acute toxicity was observed
[2]; single i.v. dose 200 mg/kg
  delayed growth (weight) on the day after the injection: approximately 1 g
[2]; single i.v. dose 400 mg/kg
  delayed growth (weight) on the day after the injection: approximately 1 g
A. fumigatus
  MIC: 6.25 µg/mL
Candida albicans
  Activity C.a. (relative activity in relation to Ard1): 4

## DKLIGSCVWGAVNYTSNCNAECKRRGYKGGHCGSFLNVNCWCQT (disulfide 7-32, 18-40, 22-42 (inferred)) [pEM46]
[1]; FIGS. 6-7
  effect on mouse survival relative to placebo treatment: does not significantly increase mouse survival
C. parapsilosis
  MIC: 0.78 µg/mL
C. dubliensis
  MIC: 3.125 µg/mL
A. fumigatus
  MIC: 3.125 µg/mL
Candida albicans
  Activity C.a. (relative activity in relation to Ard1): 4-8

## DKLIGSCVWGAVNYTSNCRAECKRRGYKGGHCGSFANVNCWCET (disulfide 7-32, 18-40, 22-42 (inferred)) [pEM51]
[1]; FIGS. 6-7
  morbidity score up to post-infection day 5: 11/50
  median mortality, post-infection day: 5 days
  delay of onset of the 1st death: 1.5 days
[2]
  acute toxicity: no acute toxicity was observed
[2]; single i.v. dose 200 mg/kg
  delayed growth (weight) on the day after the injection: approximately 1 g
[2]; single i.v. dose 300 mg/kg
  delayed growth (weight) on the day after the injection: approximately 1 g
[2]; single i.v. dose 400 mg/kg
  delayed growth (weight) on the day after the injection: approximately 2 g
Candida albicans
  Activity C.a. (relative activity in relation to Ard1): 2-4
